Measured values: patent publication US12479847B2 (DANA-FARBER CANCER INSTITUTE, INC., priority 2019, dated 2025)

Tests used:
Test in all cases: KINOMEscan (ScanMAX) kinase profiling
Type in all cases: binding
panel of 468 kinases [1] = target: T1, panel of 468 kinases (Homo sapiens, UniProt P31152); settings: ERK4; 1 μM; read-out: % control
T1 construct: purchased KINOMEscan (ScanMAX) service

panel of 468 kinases [2] = target: T2, panel of 468 kinases (Homo sapiens, UniProt P42680); settings: TEC; 1 μM; read-out: % control
T2 construct: purchased KINOMEscan (ScanMAX) service
T2 sequence (P42680 1-631): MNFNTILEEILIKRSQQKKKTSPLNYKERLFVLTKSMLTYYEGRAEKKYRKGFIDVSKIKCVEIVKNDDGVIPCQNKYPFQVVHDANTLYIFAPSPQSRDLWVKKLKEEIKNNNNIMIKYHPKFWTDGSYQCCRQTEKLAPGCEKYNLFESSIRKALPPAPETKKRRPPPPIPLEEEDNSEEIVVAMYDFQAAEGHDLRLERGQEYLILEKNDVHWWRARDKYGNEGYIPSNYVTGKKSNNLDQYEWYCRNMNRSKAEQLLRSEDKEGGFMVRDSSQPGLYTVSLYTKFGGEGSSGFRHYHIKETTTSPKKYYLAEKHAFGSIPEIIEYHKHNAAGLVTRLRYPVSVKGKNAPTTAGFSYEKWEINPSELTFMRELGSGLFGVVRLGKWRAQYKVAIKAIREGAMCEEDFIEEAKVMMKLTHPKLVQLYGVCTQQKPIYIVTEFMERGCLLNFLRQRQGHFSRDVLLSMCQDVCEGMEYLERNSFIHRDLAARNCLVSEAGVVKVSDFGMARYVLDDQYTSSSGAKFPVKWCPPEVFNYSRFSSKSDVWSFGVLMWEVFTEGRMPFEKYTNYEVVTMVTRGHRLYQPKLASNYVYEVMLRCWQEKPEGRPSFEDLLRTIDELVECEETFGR

panel of 468 kinases [3] = target: T3, panel of 468 kinases (Homo sapiens, UniProt P49137); settings: MAPKAPK2; 1 μM; read-out: % control
T3 construct: purchased KINOMEscan (ScanMAX) service

panel of 468 kinases [4] = target: T4, panel of 468 kinases (Homo sapiens, UniProt Q12852); settings: DLK; 1 μM; read-out: % control
T4 construct: purchased KINOMEscan (ScanMAX) service
T4 sequence (Q12852 1-859): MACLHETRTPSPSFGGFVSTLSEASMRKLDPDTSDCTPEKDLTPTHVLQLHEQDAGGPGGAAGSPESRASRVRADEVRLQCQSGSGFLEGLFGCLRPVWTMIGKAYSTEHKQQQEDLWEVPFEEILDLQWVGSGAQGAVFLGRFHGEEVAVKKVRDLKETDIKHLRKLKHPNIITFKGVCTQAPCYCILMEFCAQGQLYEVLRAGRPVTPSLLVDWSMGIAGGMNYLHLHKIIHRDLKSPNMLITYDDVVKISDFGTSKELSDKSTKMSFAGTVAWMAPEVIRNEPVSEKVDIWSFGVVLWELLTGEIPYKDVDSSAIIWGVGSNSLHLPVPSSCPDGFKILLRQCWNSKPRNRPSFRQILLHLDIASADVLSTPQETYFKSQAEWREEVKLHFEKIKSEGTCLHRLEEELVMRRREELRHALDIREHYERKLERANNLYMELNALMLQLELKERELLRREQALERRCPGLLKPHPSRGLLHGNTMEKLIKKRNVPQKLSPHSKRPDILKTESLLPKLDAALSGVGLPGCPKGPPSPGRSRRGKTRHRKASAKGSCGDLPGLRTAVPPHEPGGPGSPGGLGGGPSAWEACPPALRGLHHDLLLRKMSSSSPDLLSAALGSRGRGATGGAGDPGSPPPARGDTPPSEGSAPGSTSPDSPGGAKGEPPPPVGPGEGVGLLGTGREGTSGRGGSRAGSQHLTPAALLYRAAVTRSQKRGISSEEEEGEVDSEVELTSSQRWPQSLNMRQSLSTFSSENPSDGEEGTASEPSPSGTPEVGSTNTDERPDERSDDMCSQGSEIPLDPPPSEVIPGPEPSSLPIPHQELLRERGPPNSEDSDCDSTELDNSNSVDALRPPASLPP

panel of 468 kinases [5] = target: T5, panel of 468 kinases (Homo sapiens, UniProt Q13237); settings: PRKG2; 1 μM; read-out: % control
T5 construct: purchased KINOMEscan (ScanMAX) service
T5 sequence (Q13237 1-762): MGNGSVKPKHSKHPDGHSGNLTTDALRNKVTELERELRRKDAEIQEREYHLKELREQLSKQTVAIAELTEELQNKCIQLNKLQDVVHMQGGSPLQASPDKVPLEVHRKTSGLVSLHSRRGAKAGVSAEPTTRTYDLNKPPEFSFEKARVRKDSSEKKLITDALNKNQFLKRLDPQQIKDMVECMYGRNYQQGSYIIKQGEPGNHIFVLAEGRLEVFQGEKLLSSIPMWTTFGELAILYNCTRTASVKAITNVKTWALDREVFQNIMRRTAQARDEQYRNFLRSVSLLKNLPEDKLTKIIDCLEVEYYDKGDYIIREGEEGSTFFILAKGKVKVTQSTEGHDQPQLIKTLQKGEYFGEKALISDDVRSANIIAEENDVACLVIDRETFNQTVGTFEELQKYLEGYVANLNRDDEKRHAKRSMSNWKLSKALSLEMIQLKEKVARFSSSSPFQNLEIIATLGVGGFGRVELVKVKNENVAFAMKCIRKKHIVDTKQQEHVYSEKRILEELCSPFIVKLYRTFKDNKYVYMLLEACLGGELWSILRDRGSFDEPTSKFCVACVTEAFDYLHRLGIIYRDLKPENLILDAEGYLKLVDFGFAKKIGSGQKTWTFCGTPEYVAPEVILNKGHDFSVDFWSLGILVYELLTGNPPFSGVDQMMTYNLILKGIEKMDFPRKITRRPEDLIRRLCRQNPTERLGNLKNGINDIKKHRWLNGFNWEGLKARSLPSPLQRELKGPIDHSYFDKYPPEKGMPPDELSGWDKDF

panel of 468 kinases [6] = target: T6, panel of 468 kinases (Homo sapiens, UniProt Q9UPE1); settings: SRPK3; 1 μM; read-out: % control
T6 construct: purchased KINOMEscan (ScanMAX) service
T6 sequence (Q9UPE1 whole entry): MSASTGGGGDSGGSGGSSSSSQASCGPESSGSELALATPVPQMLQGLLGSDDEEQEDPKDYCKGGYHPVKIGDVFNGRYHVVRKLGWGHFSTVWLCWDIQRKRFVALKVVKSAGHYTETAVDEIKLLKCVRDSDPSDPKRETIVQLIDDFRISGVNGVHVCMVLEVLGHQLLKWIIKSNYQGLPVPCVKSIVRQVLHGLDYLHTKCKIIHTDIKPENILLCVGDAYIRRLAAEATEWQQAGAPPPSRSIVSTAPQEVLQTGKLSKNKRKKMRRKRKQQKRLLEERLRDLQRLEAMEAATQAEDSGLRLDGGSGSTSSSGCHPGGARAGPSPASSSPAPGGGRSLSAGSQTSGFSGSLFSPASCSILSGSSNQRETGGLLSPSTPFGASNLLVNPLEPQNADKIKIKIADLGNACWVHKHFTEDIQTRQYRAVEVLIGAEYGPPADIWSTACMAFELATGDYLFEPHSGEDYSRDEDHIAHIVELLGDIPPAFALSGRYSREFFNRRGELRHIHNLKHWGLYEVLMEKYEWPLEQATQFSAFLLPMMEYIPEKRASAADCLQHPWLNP

T3 sequence (P49137 whole entry): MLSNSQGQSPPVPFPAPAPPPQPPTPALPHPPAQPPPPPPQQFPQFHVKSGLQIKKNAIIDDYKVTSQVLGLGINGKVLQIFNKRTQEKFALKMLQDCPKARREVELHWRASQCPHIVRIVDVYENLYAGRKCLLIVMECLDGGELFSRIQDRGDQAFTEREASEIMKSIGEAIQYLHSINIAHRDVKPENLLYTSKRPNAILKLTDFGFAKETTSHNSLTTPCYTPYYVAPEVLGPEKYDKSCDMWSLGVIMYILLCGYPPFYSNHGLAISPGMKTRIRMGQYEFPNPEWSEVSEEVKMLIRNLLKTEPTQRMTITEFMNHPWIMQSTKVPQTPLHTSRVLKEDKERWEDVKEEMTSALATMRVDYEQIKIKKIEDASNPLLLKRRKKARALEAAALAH
T1 sequence (P31152 whole entry): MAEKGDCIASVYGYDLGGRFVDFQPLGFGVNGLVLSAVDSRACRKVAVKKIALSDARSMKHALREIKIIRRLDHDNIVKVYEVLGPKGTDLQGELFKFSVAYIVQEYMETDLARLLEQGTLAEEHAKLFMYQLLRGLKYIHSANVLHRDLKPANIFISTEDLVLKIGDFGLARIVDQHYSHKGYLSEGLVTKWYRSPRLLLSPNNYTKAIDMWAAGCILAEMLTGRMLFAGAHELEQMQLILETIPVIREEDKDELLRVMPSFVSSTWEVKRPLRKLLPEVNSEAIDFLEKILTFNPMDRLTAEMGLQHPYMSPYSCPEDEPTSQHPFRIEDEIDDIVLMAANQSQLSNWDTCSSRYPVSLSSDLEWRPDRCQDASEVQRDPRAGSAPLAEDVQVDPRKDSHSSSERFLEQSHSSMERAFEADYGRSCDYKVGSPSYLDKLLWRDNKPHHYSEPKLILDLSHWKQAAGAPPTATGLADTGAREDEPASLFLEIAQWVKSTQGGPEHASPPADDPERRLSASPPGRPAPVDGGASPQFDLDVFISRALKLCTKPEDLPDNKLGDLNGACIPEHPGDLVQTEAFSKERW

Row | SMILES | remaining binding at 1 µM (panel of 468 kinases [1]) [%] | remaining binding at 1 µM (panel of 468 kinases [2]) [%] | remaining binding at 1 µM (panel of 468 kinases [3]) [%] | remaining binding at 1 µM (panel of 468 kinases [4]) [%] | remaining binding at 1 µM (panel of 468 kinases [5]) [%] | remaining binding at 1 µM (panel of 468 kinases [6]) [%]
1 | CNc1nc(Nc2ccc(S(=O)(=O)N3CCC(N4CCOCC4)CC3)cc2OC)nc2[nH]cc(Cl)c12 [Compound 12, 5-chloro-N2-(2-methoxy-4-((4-morpholinopiperidin-1-yl)sulfonyl)phenyl)-N4-methyl-7H-pyrrolo[2,3-d]pyrimidine-2,4-diamine] | 100 | 93 | 72 | 95 | 100 | 99
2 | CNc1nc(Nc2ccc(C(=O)N3CCC(N4CCOCC4)CC3)c3c2OCO3)nc2[nH]cc(Cl)c12 [Compound 75, (7-((5-chloro-4-(methylamino)-7H-pyrrolo[2,3-d]pyrimidin-2-yl)amino)benzo[d][1,3]dioxol-4-yl)(4-morpholinopiperidin-1-yl)methanone] | 100 | 100 | 31 | 100 | 100 | 40
3 | CNc1nc(Nc2ccc(P3(=O)CCN(C4CCOCC4)CC3)cc2OC)nc2[nH]cc(Cl)c12 [Compound 77, 4-(4-((5-chloro-4-(methylamino)-7H-pyrrolo[2,3-d]pyrimidin-2-yl)amino)-3-methoxyphenyl)-1-(tetrahydro-2H-pyran-4-yl)-1,4-azaphosphinane 4-oxide] | 100 | 97 | 100 | 100 | 100 | 88
